Data from patent US20230227466A1, “SUBSTITUTED THIENOPYRIMIDINES THAT INTERACT WITH THE RAS SUPERFAMILY FOR THE TREATMENT OF CANCERS, INFLAMMATORY DISEASES, RASOPATHIES, AND FIBROTIC DISEASE” (SHY Therapeutics, LLC, priority 2020, published 2023).

Key:
[1] = tested on: Akt phosphorylation in Panc-1 cells; assay: Western AKT cell-based phosphorylation assay; parameters: species or system human; settings: at 10 μM, values in brackets < > are activation %, not inhibition
Experimental: Human Tumor-Derived Pancreatic Cancer Cell Line Panc-1 was Purchased from
(§1) American Type Culture Collection and grown in complete DMEM-High Glucose supplemented with penicillin (100 U/mL), streptomycin (100 μg/mL), and 10% heat-inactivated FBS at 37° C. in a humidified incubator with 5% CO2.
(§2) Method: Cells were plated at 350000 cells/well density in a 12-well plate, allowed 3 hours to adhere to the plate, then starved in the appropriate medium in the presence of 0.5% FBS overnight. The small molecules to be tested were added to the cells in the final concentration of 10 μM in the presence of 0.3% DMSO for 6 hours incubation at 37° C. Next, cells were stimulated with 1.5 ng/ml EGF for 15 minutes then cells were lysed with lysis buffer containing 1% Triton X-100, EDTA, and Halt™ Protease & Phosphatase Inhibitor Cocktail (Thermo Scientific). Protein concentration was assessed by BCA protein assay (Thermo Scientific). Phosphorylation level of Akt was determined by western blot.
(§3) Western blot protocol: Equal amounts of protein (15-50 μg) were separated by SDS-PAGE and transferred to nitrocellulose membranes (Invitrogen by Thermo Fisher Scientific). The membrane was stained with Ponceau S Stain (Boston BioProducts) to verify uniform protein loading. Membranes were blocked with 10% milk and phosphorylation levels of Akt were assessed by incubating overnight at 4° C. with anti-phospho-Akt (Ser473) antibody (Cell Signaling) followed by HRP-conjugated secondary antibody (Jackson Immunoresearch, West Grove, Pa.). Bands were incubated in Amersham ECL Prime Western Blotting Detection Reagent (GE Healthcare) and visualized using the ChemiDoc MP imaging system (Bio-Rad).

[2] = tested on: ERK1/2 phosphorylation in Panc-1 cells; assay: Western ERK1/2 cell-based phosphorylation assay; parameters: species or system human; settings: at 10 μM, values in brackets < > are activation %, not inhibition
Experimental: as §1, with “Cell lines: Human tumor-derived pancreatic cancer cell line Panc-1 was purchased from American” for “American”, “Glucose,” for “Glucose”
as §2, with “C. For IC50 value determination, serial dilutions of compounds were added to cells under the same conditions.” for “C.”, “ERK1/2” for “Akt”
as §3, with “ERK1/2” for “Akt”, “anti-phospho-p44/42 (Thr202/Tyr204)” for “anti-phospho-Akt (Ser473)”, “(Bio-Rad). Protocol for Western AKT cell-based phosphorylation assay” for “(Bio-Rad).”

[3] = tested on: MIA-PaCa-2 pancreatic cancer cell line (KRAS G12C); assay: Cell proliferation assay (CellTiter 96 Aqueous One); type: cell-based; settings: Homo sapiens; for IC50: MIA PaCa-2, MIA PaCa-2; for inhibition at 10 µM: MIA PaCa-2, read-out: % inh cell proliferation (10 μM) in MIA PaCa-2
Experimental: Cell lines: Human tumor-derived cell lines were purchased from American Type Culture Collection. Human tumor-derived pancreatic cancer cell line MIA-PACA2 (having a KRAS G12C mutation) and Panc-1 (having a KRAS G12D mutation), and Human non-small cell lung cancer (NSCLC) cell line A549 (having a KRAS G12S mutation) were grown in complete DMEM-High Glucose. Human colon cancer cell line SW-620 (having a KRAS G12V mutation) was grown in RPMI. All cell lines were supplemented with penicillin (100 U/mL), streptomycin (100 μg/mL), and 10% heat-inactivated FBS at 37° C. in a humidified incubator with 5% CO2.
Method: Cells were plated at 2000 to 5000 cells/well density in 96-wells plate and cultured overnight. Small molecules to be tested were added to the cells in the final concentration of 10 μM in the presence of 0.3% DMSO and 10% FBS, and incubated for 2-4 days at 37° C. in a humidified incubator with 5% CO2. For IC50 value determination, serial dilutions of compounds were added to cells under the same conditions.
Assay: At the end of the incubation period, cell viability was measured using the CellTiter 96® Aqueous One Solution Cell Proliferation Assay according to manufacturer specifications (Promega, Madison, Wis.). The percentage of small molecules inhibition of cellular proliferation was calculated from raw data.

Compound | % inh of AKT phosphorylation in PANC-1 [1] | % inh of ERK1/2 phosphorylation in PANC-1 [2] | IC50 [3] [µM] | inhibition at 10 µM [3] [%]
COCCn1ccnc1-c1nc(N[C@@H]2CC[C@H](OC)C2)c2c(-c3ccccc3)c(-c3ccn(C)n3)sc2n1 (racemic) [Compound 6, Rac-N-((1R,3S)-3-methoxycyclopentyl)-2-(1-(2-methoxyethyl)-1H-imidazol-2-yl)-6-(1-methyl-1H-pyrazol-3-yl)-5-phenylthieno[2,3-d]pyrimidin-4-amine] | 0 (0% inhibition) | D (76-100% inhibition) | 1 to 4.99 | 76 to 100
COCCn1ccnc1-c1nc(N[C@@H]2CC[C@H](OC)C2)c2ccsc2n1 (racemic) [Compound 8, Rac-N-((1R,3S)-3-methoxycyclopentyl)-2-(1-(2-methoxyethyl)-1H-imidazol-2-yl)thieno[2,3-d]pyrimidin-4-amine] | 0 (0% inhibition) | 0 (0% inhibition) | > 10 | 26 to 50
CO[C@H]1CC[C@@H](Nc2nc(-c3nccn3C)nc3sccc23)C1 (racemic) [Compound 10, Rac-N-((1R,3S)-3-methoxycyclopentyl)-2-(1-methyl-1H-imidazol-2-yl)thieno[2,3-d]pyrimidin-4-amine] | 0 (0% inhibition) | A (1-25% inhibition) | > 10 | 26 to 50
CO[C@H]1CC[C@@H](Nc2nc(C(N)=O)nc3sccc23)C1 (racemic) [Compound 11, Rac-4-(((1R,3S)-3-methoxycyclopentyl)amino)thieno[2,3-d]pyrimidine-2-carboxamide] | 0 (0% inhibition) | 0 (0% inhibition) | > 10 | 1 to 25
CO[C@H]1CC[C@@H](Nc2nc(C(=O)N3CCOCC3)nc3sccc23)C1 (racemic) [Compound 12, Rac-(4-(((1R,3S)-3-methoxycyclopentyl)amino)thieno[2,3-d]pyrimidin-2-yl)(morpholino)methanone] | 0 (0% inhibition) | 0 (0% inhibition) | > 10 | 1 to 25
CO[C@H]1CC[C@@H](Nc2nc(C(=O)NC(C)C)nc3sccc23)C1 (racemic) [Compound 13, Rac-N-isopropyl-4-(((1R,3S)-3-methoxycyclopentyl)amino)thieno[2,3-d]pyrimidine-2-carboxamide] | 0 (0% inhibition) | 0 (0% inhibition) | > 10 | 0
COCCNC(=O)c1nc(N[C@@H]2CC[C@H](OC)C2)c2ccsc2n1 (racemic) [Compound 14, rac-4-(((1R,3S)-3-Methoxycyclopentyl)amino)-N-(2-methoxyethyl)thieno[2,3-d]pyrimidine-2-carboxamide] | 0 (0% inhibition) | 0 (0% inhibition) | > 10 | 0
CO[C@H]1CC[C@@H](Nc2nc(C(=O)Nc3ccccc3)nc3sccc23)C1 (racemic) [Compound 15, rac-4-(((1R,3S)-3-Methoxycyclopentyl)amino)-N-phenylthieno[2,3-d]pyrimidine-2-carboxamide] | 0 (0% inhibition) | 0 (0% inhibition) | > 10 | 1 to 25
CO[C@H]1CC[C@@H](Nc2nc(C(=O)Nc3ccccn3)nc3sccc23)C1 (racemic) [Compound 16, rac-4-(((1R,3S)-3-Methoxycyclopentyl)amino)-N-(pyridin-2-yl)thieno[2,3-d]pyrimidine-2-carboxamide] | 0 (0% inhibition) | 0 (0% inhibition) | > 10 | 1 to 25
CO[C@H]1CC[C@@H](Nc2nc(C(N)=O)nc3sc(-c4ccn(C(C)C)n4)cc23)C1 (racemic) [Compound 17, Rac-6-(1-isopropyl-1H-pyrazol-3-yl)-4-(((1R,3S)-3-methoxycyclopentyl)amino)thieno[2,3-d]pyrimidine-2-carboxamide] | 0 (0% inhibition) | A (1-25% inhibition) | > 10 | 1 to 25
CO[C@H]1CC[C@@H](Nc2nc(C(=O)N3CCCC3)nc3sccc23)C1 (racemic) [Compound 25, Rac-(4-(((1R,3S)-3-Methoxycyclopentyl)amino)thieno[2,3-d]pyrimidin-2-yl)(pyrrolidin-1-yl)methanone] | 0 (0% inhibition) | 0 (0% inhibition) | > 10 | 1 to 25
CO[C@@H]1CC[C@@H](Nc2nc(-c3nccn3C)nc3sc(-c4ccn(C(C)C)n4)c(C)c23)C1 (racemic) [Compound 33, rac-6-(1-Isopropyl-1H-pyrazol-3-yl)-N-((1R,3R)-3-methoxycyclopentyl)-5-methyl-2-(1-methyl-1H-imidazol-2-yl)thieno[2,3-d]pyrimidin-4-amine] | 0 (0% inhibition) | D (76-100% inhibition) | 1 to 4.99 | 76 to 100
COC1CCN(c2nc(-c3nccn3C)nc3sc(-c4ccn(C(C)C)n4)c(C)c23)C1 (racemic) [Compound 34, rac-6-(1-Isopropyl-1H-pyrazol-3-yl)-4-(3-methoxypyrrolidin-1-yl)-5-methyl-2-(1-methyl-1H-imidazol-2-yl)thieno[2,3-d]pyrimidine] | 0 (0% inhibition) | D (76-100% inhibition) | 1 to 4.99 | 76 to 100
Cc1c(-c2ccn(C(C)C)n2)sc2nc(-c3nccn3C)nc(NC3CCOC3)c12 (racemic) [Compound 37, rac-6-(1-Isopropyl-1H-pyrazol-3-yl)-5-methyl-2-(1-methyl-1H-imidazol-2-yl)-N-(tetrahydrofuran-3-yl)thieno[2,3-d]pyrimidin-4-amine] | 0 (0% inhibition) | 0 (0% inhibition) | 5 to 10 | 51 to 75
